Where a SMILES comes first, the peptide text is derived from it. [ ]: non-standard residue; d: D form.
Test system: spleen cell subsets (cell surface antigens)
Test: In vivo/ex vivo immunophenotyping in the spleen, mice treated 4 consecutive days
Design: species or system C57BL/6 mice
Experimental: C57BL.backslash.6 mice are treated with 0, 50, 100, 200, and 300 mg/kg of drug (in saline) for 4 consecutive days. Blood is taken by cardiac puncture on day 5, and the lymphocytes are isolated from spleen in the following manner:
The spleen is aseptically removed and mashed by pressing against a steel strainer with a rubber plunger. The cell suspension is separated from the clumps by letting them settle at the bottom of the tube. The cell suspension is then separated on a Lymphocyte M layer and the interface is recovered and resuspended in media.
1. Immunophenotyping (blood and spleen)
Cell immunophenotyping is performed on blood and spleen. The following cell surface antigens are analyzed:
CD4 (T helper/inducer, binds class II-restricted T cells);
CD8 (cytotoxic T cells, CTL adhesion);
MAC-1 (monocyte/macrophage);
NK (natural killer cells);
CD45 (all leukocytes, protein tyrosine phosphatase).

## NCCCC[C@@H](N)C(=O)N[C@@H](CC(N)=O)C(=O)N1CCC[C@H]1C(=O)N[C@@H](Cc1ccc(O)cc1)C(=O)O [PEPTIDE #5, H-(D-Lys)-Asn-Pro-Tyr-OH] (H-[dK]NPY-OH)
100 mg/kg, first assay
  TCR(T) cell subset, relative percentage, MEAN: 39.83
100 mg/kg, second assay
  CD4+ CD8+ cell subset, relative percentage, MEAN: 0.53
  CD4+ CD8- cell subset, relative percentage, MEAN: 31.78
  CD4+ CD11b+ cell subset, relative percentage, MEAN: 0.33
  CD4+ CD11b- cell subset, relative percentage, MEAN: 14.65
  CD4- CD8+ cell subset, relative percentage, MEAN: 4.68
  CD4- CD8- cell subset, relative percentage, MEAN: 63.03
  CD4- CD11b+ cell subset, relative percentage, MEAN: 3.53
  CD4- CD11b- cell subset, relative percentage, MEAN: 81.53
  CD45+ CD4+ cell subset, relative percentage, MEAN: 26.40
  CD45+ CD4- cell subset, relative percentage, MEAN: 50.20
  CD45+ CD8+ cell subset, relative percentage, MEAN: 4.80
  CD45+ CD8- cell subset, relative percentage, MEAN: 73.48
  CD45- CD4+ cell subset, relative percentage, MEAN: 6.83
  CD45- CD4- cell subset, relative percentage, MEAN: 16.60
  CD45- CD8+ cell subset, relative percentage, MEAN: 0.10
  CD45- CD8- cell subset, relative percentage, MEAN: 21.68
  Ly5(B) cell subset, relative percentage, MEAN: 48.28
  NK+ CD3+ cell subset, relative percentage, MEAN: 2.25
  NK+ CD3- cell subset, relative percentage, MEAN: 4.10
  NK- CD3+ cell subset, relative percentage, MEAN: 28.65
  NK- CD3- cell subset, relative percentage, MEAN: 65.05
  TCR(T) cell subset, relative percentage, MEAN: 40.33
200 mg/kg, first assay
  CD4+ CD8+ cell subset, relative percentage, MEAN: 0.63
  CD4+ CD8- cell subset, relative percentage, MEAN: 33.73
  CD4+ CD11b+ cell subset, relative percentage, MEAN: 1.00
  CD4+ CD11b- cell subset, relative percentage, MEAN: 22.65
  CD4- CD8+ cell subset, relative percentage, MEAN: 5.68
  CD4- CD8- cell subset, relative percentage, MEAN: 60.00
  CD4- CD11b+ cell subset, relative percentage, MEAN: 3.58
  CD4- CD11b- cell subset, relative percentage, MEAN: 72.00
  CD45+ CD4+ cell subset, relative percentage, MEAN: 21.18
  CD45+ CD4- cell subset, relative percentage, MEAN: 54.03
  CD45+ CD8+ cell subset, relative percentage, MEAN: 5.28
  CD45+ CD8- cell subset, relative percentage, MEAN: 64.83
  CD45- CD4+ cell subset, relative percentage, MEAN: 14.33
  CD45- CD4- cell subset, relative percentage, MEAN: 10.48
  CD45- CD8+ cell subset, relative percentage, MEAN: 0.55
  CD45- CD8- cell subset, relative percentage, MEAN: 29.35
  Ly5(B) cell subset, relative percentage, MEAN: 59.50
  NK+ CD3+ cell subset, relative percentage, MEAN: 1.95
  NK+ CD3- cell subset, relative percentage, MEAN: 3.88
  NK- CD3+ cell subset, relative percentage, MEAN: 35.70
  NK- CD3- cell subset, relative percentage, MEAN: 58.50
  TCR(T) cell subset, relative percentage, MEAN: 37.30
200 mg/kg, second assay
  CD4+ CD8+ cell subset, relative percentage, MEAN: 0.55
  CD4+ CD8- cell subset, relative percentage, MEAN: 36.13
  CD4+ CD11b+ cell subset, relative percentage, MEAN: 0.33
  CD4+ CD11b- cell subset, relative percentage, MEAN: 13.10
  CD4- CD8+ cell subset, relative percentage, MEAN: 4.95
  CD4- CD8- cell subset, relative percentage, MEAN: 58.40
  CD4- CD11b+ cell subset, relative percentage, MEAN: 3.20
  CD4- CD11b- cell subset, relative percentage, MEAN: 78.38
  CD45+ CD4+ cell subset, relative percentage, MEAN: 29.00
  CD45+ CD4- cell subset, relative percentage, MEAN: 52.45
  CD45+ CD8+ cell subset, relative percentage, MEAN: 5.08
  CD45+ CD8- cell subset, relative percentage, MEAN: 78.23
  CD45- CD4+ cell subset, relative percentage, MEAN: 8.63
  CD45- CD4- cell subset, relative percentage, MEAN: 9.98
  CD45- CD8+ cell subset, relative percentage, MEAN: 0.13
  CD45- CD8- cell subset, relative percentage, MEAN: 16.60
  Ly5(B) cell subset, relative percentage, MEAN: 46.50
  NK+ CD3+ cell subset, relative percentage, MEAN: 2.35
  NK+ CD3- cell subset, relative percentage, MEAN: 4.35
  NK- CD3+ cell subset, relative percentage, MEAN: 32.15
  NK- CD3- cell subset, relative percentage, MEAN: 61.10
  TCR(T) cell subset, relative percentage, MEAN: 47.23

From US5980913A, “Peptides having immunomodulatory activity” (Biochem Pharma, Inc., priority 1994, dated 1999)
